In patent publication US11178871B2, “Herbicidal pyrimidine compounds” (BASF SE, priority 2016, dated 2021):

Columns and labels:
Type in all cases: in vivo
Echinocloa crus-galli [1] = assay: greenhouse test, post-emergence treatment, ECHCG; details: post-emergence
Description: (§1) The culture containers used were plastic flowerpots containing loamy sand with approximately 3.0% of humus as the substrate. The seeds of the test plants were sown separately for each species.
(§2) For the post-emergence treatment, the test plants were first grown to a height of 3 to 15 cm, depending on the plant habit, and only then treated with the active ingredients which had been suspended or emulsified in water. For this purpose, the test plants were either sown directly and grown in the same containers, or they were first grown separately as seedlings and transplanted into the test containers a few days prior to treatment.
(§3) Depending on the species, the plants were kept at 10-25° C. or 20-35° C., respectively.
(§4) The test period extended over 2 to 4 weeks. During this time, the plants were tended, and their response to the individual treatments was evaluated.
(§5) Evaluation was carried out using a scale from 0 to 100. 100 means no emergence of the plants, or complete destruction of at least the aerial moieties, and 0 means no damage, or normal course of growth. A good herbicidal activity is given at values of at least 70 and a very good herbicidal activity is given at values of at least 85.
(§6) The plants used in the greenhouse experiments were of the following species: […]

Avena fatua = assay: greenhouse test, post-emergence treatment, AVEFA
Description: as §1, §2, §3, §4, §5, §6

Alopecurus myosuroides = assay: greenhouse test, post-emergence treatment, ALOMY; details: post-emergence
Description: as §1, §2, §3, §4, §5, §6

Apera spica-venti = assay: greenhouse test, pre-emergence treatment, APESV
Description: as §1
(§7) For the pre-emergence treatment, the active ingredients, which had been suspended or emulsified in water, were applied directly after sowing by means of finely distributing nozzles. The containers were irrigated gently to promote germination and growth and subsequently covered with transparent plastic hoods until the plants had rooted. This cover caused uniform germination of the test plants, unless this had been impaired by the active ingredients.
as §3, §4, §5, §6

Echinocloa crus-galli [2] = assay: greenhouse test, pre-emergence treatment, ECHCG
Description: as §1, §7, §3, §4, §5, §6

In the case of `Fc1ccc(-c2cnc(C3CC3)nc2-c2cc3cc(Cl)ccc3o2)c(Cl)c1` [Ex. 44], the herbicidal activity (Echinocloa crus-galli [1]; 1000 g/ha) is reported as “very good (a very good herbicidal activity is given at values of at least 85)” and the herbicidal activity (Avena fatua; 1000 g/ha) is reported as “very good (a very good herbicidal activity is given at values of at least 85)”.

`Clc1ccccc1-c1cnc(C2CC2)nc1COCc1ccccc1` [Ex. 21] was tested, and the herbicidal activity (Alopecurus myosuroides; 1000 g/ha) was “very good (a very good herbicidal activity is given at values of at least 85)” and the herbicidal activity (Apera spica-venti; 1000 g/ha) was “very good (a very good herbicidal activity is given at values of at least 85)”.

For `Clc1ccccc1-c1cnc(C2CC2)nc1/C=C/c1ccco1` [Ex. 94], the herbicidal activity (Alopecurus myosuroides; 2000 g/ha) was “very good (a very good herbicidal activity is given at values of at least 85)”, the herbicidal activity (Apera spica-venti; 2000 g/ha) was “very good (a very good herbicidal activity is given at values of at least 85)” and the herbicidal activity (Avena fatua; 2000 g/ha) was “very good (a very good herbicidal activity is given at values of at least 85)”.

In the case of `CCOP(=O)(OCC)C(OS(C)(=O)=O)c1nc(C2CC2)ncc1-c1ccccc1Cl` (stereo not shown) [Ex. 89], the herbicidal activity (Alopecurus myosuroides; 2000 g/ha) is reported as “very good (a very good herbicidal activity is given at values of at least 85)”, the herbicidal activity (Apera spica-venti; 2000 g/ha) is reported as “good (A good herbicidal activity is given at values of at least 70)” and the herbicidal activity (Avena fatua; 2000 g/ha) is reported as “good (A good herbicidal activity is given at values of at least 70)”.

For `CC(C)=CC=Cc1nc(C2CC2)ncc1-c1ccccc1Cl` [Ex. 224], the herbicidal activity (Echinocloa crus-galli [1]; 2000 g/ha) was “very good (a very good herbicidal activity is given at values of at least 85)”, the herbicidal activity (Echinocloa crus-galli [2]; 2000 g/ha) was “very good (a very good herbicidal activity is given at values of at least 85)” and the herbicidal activity (Alopecurus myosuroides; 2000 g/ha) was “very good (a very good herbicidal activity is given at values of at least 85)”. The herbicidal activity (Apera spica-venti; 2000 g/ha) was “very good (a very good herbicidal activity is given at values of at least 85)”.

In the case of `COc1cccc(-c2nc(C3CC3)ncc2-c2ccccc2Cl)c1` [Ex. 125], the herbicidal activity (Echinocloa crus-galli [1]; 500 g/ha) is reported as “very good (a very good herbicidal activity is given at values of at least 85)”.

`CC(C)(C)/C=C/c1nc(C2CC2)ncc1-c1ccccc1Cl` [Ex. 95] was tested, and the herbicidal activity (Echinocloa crus-galli [1]; 2000 g/ha) was “very good (a very good herbicidal activity is given at values of at least 85)”, the herbicidal activity (Alopecurus myosuroides; 2000 g/ha) was “very good (a very good herbicidal activity is given at values of at least 85)” and the herbicidal activity (Apera spica-venti; 2000 g/ha) was “very good (a very good herbicidal activity is given at values of at least 85)”.

In the case of `Cc1nc(-c2nc(C3CC3)ncc2-c2ccccc2Br)co1` [Ex. 288], the herbicidal activity (Alopecurus myosuroides; 2000 g/ha) is reported as “very good (a very good herbicidal activity is given at values of at least 85)”.

For `CC(C)(O)c1nc(C2CC2)ncc1-c1ccc(F)cc1Cl` [Ex. 135], the herbicidal activity (Alopecurus myosuroides; 500 g/ha) was “good (A good herbicidal activity is given at values of at least 70)”.

For `Cc1ccoc1-c1nc(C2CC2)ncc1-c1ccccc1I` [Ex. 77], the herbicidal activity (Alopecurus myosuroides; 1000 g/ha) was “very good (a very good herbicidal activity is given at values of at least 85)” and the herbicidal activity (Avena fatua; 1000 g/ha) was “very good (a very good herbicidal activity is given at values of at least 85)”.

`Cc1ccc(-c2nc(C3CC3)ncc2-c2ccccc2C)o1` [Ex. 120] was tested, and the herbicidal activity (Alopecurus myosuroides; 1000 g/ha) was “good (A good herbicidal activity is given at values of at least 70)”.

With `Cc1ccc(-c2nc(C3CC3)ncc2-c2cc(F)ccc2C)o1` [Ex. 110] the herbicidal activity (Echinocloa crus-galli [1]; 1000 g/ha) was “good (A good herbicidal activity is given at values of at least 70)”.

In the case of `OC1(c2nc(C3CC3)ncc2-c2ccccc2Cl)CCC1` [Ex. 143], the herbicidal activity (Echinocloa crus-galli [1]; 2000 g/ha) is reported as “very good (a very good herbicidal activity is given at values of at least 85)”.

With `Brc1ccccc1-c1cnc(C2CC2)nc1-c1ccco1` [Ex. 34] the herbicidal activity (Echinocloa crus-galli [1]; 2000 g/ha) was “very good (a very good herbicidal activity is given at values of at least 85)”, the herbicidal activity (Echinocloa crus-galli [2]; 2000 g/ha) was “good (A good herbicidal activity is given at values of at least 70)” and the herbicidal activity (Alopecurus myosuroides; 2000 g/ha) was “good (A good herbicidal activity is given at values of at least 70)”. The herbicidal activity (Apera spica-venti; 2000 g/ha) was “very good (a very good herbicidal activity is given at values of at least 85)”.

In the case of `N#Cc1csc(-c2nc(C3CC3)ncc2-c2ccccc2Cl)c1` [Ex. 126], the herbicidal activity (Echinocloa crus-galli [1]; 2000 g/ha) is reported as “very good (a very good herbicidal activity is given at values of at least 85)”.

In the case of `Clc1ccccc1-c1cnc(C2CC2)nc1CCc1ccco1` [Ex. 102], the herbicidal activity (Echinocloa crus-galli [1]; 2000 g/ha) is reported as “very good (a very good herbicidal activity is given at values of at least 85)”.

In the case of `OC1(Cc2nc(C3CC3)ncc2-c2ccccc2Br)COC1` [Ex. 155], the herbicidal activity (Echinocloa crus-galli [1]; 2000 g/ha) is reported as “very good (a very good herbicidal activity is given at values of at least 85)” and the herbicidal activity (Alopecurus myosuroides; 2000 g/ha) is reported as “very good (a very good herbicidal activity is given at values of at least 85)”.

For `Cc1ncoc1-c1nc(C2CC2)ncc1-c1ccc(C(F)(F)F)cc1Cl` [Ex. 264], the herbicidal activity (Alopecurus myosuroides; 500 g/ha) was “very good (a very good herbicidal activity is given at values of at least 85)” and the herbicidal activity (Avena fatua; 500 g/ha) was “very good (a very good herbicidal activity is given at values of at least 85)”.

`CC(=O)OC(c1nc(C2CC2)ncc1-c1ccccc1Cl)C(C)(C)OC(C)=O` (stereo not shown) [Ex. 274] was tested, and the herbicidal activity (Echinocloa crus-galli [1]; 1000 g/ha) was “very good (a very good herbicidal activity is given at values of at least 85)”, the herbicidal activity (Echinocloa crus-galli [2]; 1000 g/ha) was “very good (a very good herbicidal activity is given at values of at least 85)” and the herbicidal activity (Alopecurus myosuroides; 1000 g/ha) was “very good (a very good herbicidal activity is given at values of at least 85)”. The herbicidal activity (Apera spica-venti; 1000 g/ha) was “very good (a very good herbicidal activity is given at values of at least 85)”.

In the case of `OC(Cc1nc(C2CC2)ncc1-c1ccccc1Cl)c1ccccc1` (stereo not shown) [Ex. 66], the herbicidal activity (Echinocloa crus-galli [1]; 2000 g/ha) is reported as “very good (a very good herbicidal activity is given at values of at least 85)”.

`CC(O)c1nc(C2CC2)ncc1-c1ccc(F)cc1Cl` (stereo not shown) [Ex. 112] was tested, and the herbicidal activity (Echinocloa crus-galli [1]; 1000 g/ha) was “good (A good herbicidal activity is given at values of at least 70)”.

`Cc1ccc(-c2nc(C3CC3)ncc2-c2ccccc2Cl)o1` [Ex. 26] was tested, and the herbicidal activity (Echinocloa crus-galli [1]; 2000 g/ha) was “very good (a very good herbicidal activity is given at values of at least 85)”, the herbicidal activity (Echinocloa crus-galli [2]; 2000 g/ha) was “very good (a very good herbicidal activity is given at values of at least 85)” and the herbicidal activity (Alopecurus myosuroides; 2000 g/ha) was “very good (a very good herbicidal activity is given at values of at least 85)”. For the same molecule, the herbicidal activity (Apera spica-venti; 2000 g/ha) was “very good (a very good herbicidal activity is given at values of at least 85)”.

With `FC(F)(F)c1ccc(-c2nc(C3CC3)ncc2-c2ccccc2Cl)s1` [Ex. 216] the herbicidal activity (Echinocloa crus-galli [1]; 1000 g/ha) was “very good (a very good herbicidal activity is given at values of at least 85)”, the herbicidal activity (Alopecurus myosuroides; 1000 g/ha) was “very good (a very good herbicidal activity is given at values of at least 85)” and the herbicidal activity (Apera spica-venti; 1000 g/ha) was “very good (a very good herbicidal activity is given at values of at least 85)”.

`OC(Cc1nc(C2CC2)ncc1-c1ccccc1Cl)c1nc(Cl)ccc1Cl` (stereo not shown) [Ex. 256] was tested, and the herbicidal activity (Echinocloa crus-galli [1]; 2000 g/ha) was “very good (a very good herbicidal activity is given at values of at least 85)”, the herbicidal activity (Echinocloa crus-galli [2]; 2000 g/ha) was “very good (a very good herbicidal activity is given at values of at least 85)” and the herbicidal activity (Apera spica-venti; 2000 g/ha) was “very good (a very good herbicidal activity is given at values of at least 85)”.

With `O=C(O)C(O)Cc1nc(C2CC2)ncc1-c1ccccc1Cl` (stereo not shown) [Ex. 97] the herbicidal activity (Echinocloa crus-galli [1]; 2000 g/ha) was “very good (a very good herbicidal activity is given at values of at least 85)” and the herbicidal activity (Apera spica-venti; 2000 g/ha) was “very good (a very good herbicidal activity is given at values of at least 85)”.

With `Fc1cccc(Cl)c1-c1cnc(C2CC2)nc1-c1ccco1` [Ex. 60] the herbicidal activity (Alopecurus myosuroides; 1000 g/ha) was “very good (a very good herbicidal activity is given at values of at least 85)” and the herbicidal activity (Avena fatua; 1000 g/ha) was “very good (a very good herbicidal activity is given at values of at least 85)”.

For `Clc1ccccc1-c1cnc(C2CC2)nc1CC1=CCOCC1` [Ex. 104], the herbicidal activity (Echinocloa crus-galli [1]; 2000 g/ha) was “good (A good herbicidal activity is given at values of at least 70)”, the herbicidal activity (Echinocloa crus-galli [2]; 2000 g/ha) was “good (A good herbicidal activity is given at values of at least 70)” and the herbicidal activity (Alopecurus myosuroides; 2000 g/ha) was “very good (a very good herbicidal activity is given at values of at least 85)”. For the same molecule, the herbicidal activity (Apera spica-venti; 2000 g/ha) was “very good (a very good herbicidal activity is given at values of at least 85)”.

With `CCc1ncc(-c2ccccc2Br)c(-c2ccoc2)n1` [Ex. 63] the herbicidal activity (Echinocloa crus-galli [1]; 1000 g/ha) was “very good (a very good herbicidal activity is given at values of at least 85)”.

`Cc1ccc(-c2nc(C3CC3)ncc2-c2ccc(F)cc2I)o1` [Ex. 81] was tested, and the herbicidal activity (Alopecurus myosuroides; 1000 g/ha) was “very good (a very good herbicidal activity is given at values of at least 85)” and the herbicidal activity (Avena fatua; 1000 g/ha) was “very good (a very good herbicidal activity is given at values of at least 85)”.

In the case of `Cc1ccc(-c2nc(C3CC3)ncc2-c2cc(F)c(F)cc2Cl)o1` [Ex. 79], the herbicidal activity (Alopecurus myosuroides; 1000 g/ha) is reported as “very good (a very good herbicidal activity is given at values of at least 85)” and the herbicidal activity (Avena fatua; 1000 g/ha) is reported as “very good (a very good herbicidal activity is given at values of at least 85)”.

In the case of `COC(=O)C(O)c1nc(C2CC2)ncc1-c1ccccc1Cl` (stereo not shown) [Ex. 220], the herbicidal activity (Echinocloa crus-galli [2]; 1000 g/ha) is reported as “good (A good herbicidal activity is given at values of at least 70)”.

`Clc1ccccc1-c1cnc(C2CC2)nc1-c1cocn1` [Ex. 215] was tested, and the herbicidal activity (Alopecurus myosuroides; 2000 g/ha) was “very good (a very good herbicidal activity is given at values of at least 85)” and the herbicidal activity (Apera spica-venti; 2000 g/ha) was “very good (a very good herbicidal activity is given at values of at least 85)”.

`OC(c1nc(C2CC2)ncc1-c1ccccc1Cl)C(O)c1c(Cl)ccc(Cl)c1Cl` (stereo not shown) [Ex. 240] was tested, and the herbicidal activity (Echinocloa crus-galli [2]; 2000 g/ha) was “very good (a very good herbicidal activity is given at values of at least 85)” and the herbicidal activity (Apera spica-venti; 2000 g/ha) was “very good (a very good herbicidal activity is given at values of at least 85)”.

`OC1(Cc2nc(C3CC3)ncc2-c2ccccc2Cl)COC1` [Ex. 73] was tested, and the herbicidal activity (Alopecurus myosuroides; 2000 g/ha) was “good (A good herbicidal activity is given at values of at least 70)”.
